Residues, ends and D or L forms follow the SMILES beside them.
Assay: Effect on acute food intake in normal NMRI mice
Type: in vivo
Conditions: male NMRI mice, single subcutaneous dose 100 nmol/kg, normalized to vehicle group
Experimental: Example 9: Pharmacodynamics Effect on Acute Food Intake in Normal NMRI Mice
Male NMRI mice were obtained from Charles River (Charles River, Research Models & Services Germany GmbH) or from JanVier (JanVier Labs, France) at 3 weeks of age. The animals were group housed 4 mice pr. cage under a 12/12 hours dark-light cycle, light off at 3 pm. Room temperature was controlled to 21° C.±1° C., with 60%±20% humidity. Animals had ad libitum access to regular rodent chow (KLIBA Nafag 3430 or Altromin 1324, Brogaarden, Denmark) and tap water. Animals were transferred at 6 weeks of age, 5-7 days before the start of the study to a real-time food intake monitoring system, HM-2 system (MBRose, Denmark), to allow acclimatization to experimental conditions. As the animals were uniquely identified with microchips, each individual animal was identified by its microchip upon entry and exit from the food channel. Randomization of the mice for each study group (n=8-11) was based on body weight measured the day before the start of the study. A vehicle-treated (50 mM acetate buffer pH 7.4 with 3.5% mannitol) group was included in each experiment. Six hours before the start of the night phase animals were fasted. One hour before the dark phase animals were dosed once subcutaneously with test peptide. Food intake was reported hourly for a period of 24 hours. The food intake of the treated groups was normalized (in %) to the average food intake of the group receiving vehicle (table 10). Statistical significance was evaluated using One-way analysis of variance with Bonferroni's multiple comparison test. P<0.05 was considered statistically significant.

Compound | Acute Food Intake 24 h [% vehicle]
CCCC[C@H](NC(=O)[C@H](CC(C)C)N(C)C(=O)[C@H](Cc1ccccc1)NC(=O)[C@H](Cc1ccc(O)cc1)NC(=O)CN1CCN(CCNC(=O)CN(C)C(=O)CN(C)C(=O)CN(C)C(=O)CN(C)C(=O)CN(C)C(=O)CN(C)C(=O)CN(C)C(=O)CN(C)C(=O)CN(C)C(=O)CN(C)C(=O)CN(C)C(=O)CN(C)C(=O)CN(C)C(=O)CN(C)C(=O)CN(C)C(=O)CC[C@H](NC(=O)CC[C@H](NC(=O)CC[C@H](NC(=O)CCCCCCCCCCCCCCCCCCC(=O)O)C(=O)O)C(=O)O)C(=O)O)CC1)C(=O)N[C@@H](CCCN)C(=O)N1CCC[C@H]1C(=O)N[C@@H](CCCNC(=N)N)C(=O)NCC(N)=O [Compound 1, C20DA-gGlu3-Sar15-AEPipAc-Tyr-Phe-NMeLeu-Nle-Orn-Pro-Arg-Gly-NH2] (HELM PEPTIDE1{[O=C(O)CCCCCCCCCCCCCCCCCCC(=O)[*:2]].[gGlu].[gGlu].[gGlu].[Sar].[Sar].[Sar].[Sar].[Sar].[Sar].[Sar].[Sar].[Sar].[Sar].[Sar].[Sar].[Sar].[Sar].[Sar].[O=C(CN1CCN(CCN[*:1])CC1)[*:2]].Y.F.[meL].[Nle].[Orn].P.R.G.[am]}$$$$V2.0) | 31
CCCC[C@H](NC(=O)[C@H](CC(C)C)N(C)C(=O)[C@H](Cc1ccccc1)NC(=O)[C@H](Cc1ccc(O)cc1)NC(=O)CN1CCN(CCNC(=O)CN(C)C(=O)CN(C)C(=O)CN(C)C(=O)CN(C)C(=O)CN(C)C(=O)CN(C)C(=O)CN(C)C(=O)CN(C)C(=O)CN(C)C(=O)CN(C)C(=O)CN(C)C(=O)CN(C)C(=O)CN(C)C(=O)CN(C)C(=O)CN(C)C(=O)CC[C@H](NC(=O)CC[C@H](NC(=O)CC[C@H](NC(=O)CCCCCCCCCCCCCCCCC(=O)O)C(=O)O)C(=O)O)C(=O)O)CC1)C(=O)N[C@@H](CCCNC(=N)N)C(=O)N1CCC[C@H]1C(=O)N[C@@H](CCCNC(=N)N)C(=O)NCC(N)=O [Compound 7, C18DA-gGlu3-Sar15-AEPipAc-Tyr-Phe-NMeLeu-Nle-Arg-Pro-Arg-Gly-NH2] (HELM PEPTIDE1{[O=C(O)CCCCCCCCCCCCCCCCC(=O)[*:2]].[gGlu].[gGlu].[gGlu].[Sar].[Sar].[Sar].[Sar].[Sar].[Sar].[Sar].[Sar].[Sar].[Sar].[Sar].[Sar].[Sar].[Sar].[Sar].[O=C(CN1CCN(CCN[*:1])CC1)[*:2]].Y.F.[meL].[Nle].R.P.R.G.[am]}$$$$V2.0) | 46
CCCC[C@H](NC(=O)[C@H](CC(C)C)N(C)C(=O)[C@H](Cc1ccccc1)NC(=O)[C@H](Cc1ccc(O)cc1)NC(=O)CN1CCN(CCNC(=O)CN(C)C(=O)CN(C)C(=O)CN(C)C(=O)CN(C)C(=O)CN(C)C(=O)CN(C)C(=O)CN(C)C(=O)CN(C)C(=O)CN(C)C(=O)CN(C)C(=O)CN(C)C(=O)CN(C)C(=O)CN(C)C(=O)CN(C)C(=O)CN(C)C(=O)CC[C@H](NC(=O)CC[C@H](NC(=O)CC[C@H](NC(=O)CCCCCCCCCCCCCCCCC(=O)O)C(=O)O)C(=O)O)C(=O)O)CC1)C(=O)N[C@@H](CCN)C(=O)N1CCC[C@H]1C(=O)N[C@@H](CCCNC(=N)N)C(=O)NCC(N)=O [Compound 26, C18DA-gGlu3-Sar15-AEPipAc-Tyr-Phe-NMeLeu-Nle-Dbu-Pro-Arg-Gly-NH2] (HELM PEPTIDE1{[O=C(O)CCCCCCCCCCCCCCCCC(=O)[*:2]].[gGlu].[gGlu].[gGlu].[Sar].[Sar].[Sar].[Sar].[Sar].[Sar].[Sar].[Sar].[Sar].[Sar].[Sar].[Sar].[Sar].[Sar].[Sar].[O=C(CN1CCN(CCN[*:1])CC1)[*:2]].Y.F.[meL].[Nle].[Dab].P.R.G.[am]}$$$$V2.0) | 37
CCCC[C@H](NC(=O)[C@H](CC(C)C)N(C)C(=O)[C@H](Cc1ccccc1)NC(=O)[C@H](Cc1ccc(O)cc1)NC(=O)CN1CCN(CCNC(=O)CN(C)C(=O)CN(C)C(=O)CN(C)C(=O)CN(C)C(=O)CN(C)C(=O)CN(C)C(=O)CN(C)C(=O)CN(C)C(=O)CN(C)C(=O)CN(C)C(=O)CN(C)C(=O)CN(C)C(=O)CN(C)C(=O)CN(C)C(=O)CN(C)C(=O)CC[C@H](NC(=O)CC[C@H](NC(=O)CC[C@H](NC(=O)CCCCCCCCCCCCCCCCCCC(=O)O)C(=O)O)C(=O)O)C(=O)O)CC1)C(=O)N[C@@H](CCN)C(=O)N1CCC[C@H]1C(=O)N[C@@H](CCCNC(=N)N)C(=O)NCC(N)=O [Compound 42, C20DA-gGlu3-Sar15-AEPipAc-Tyr-Phe-NMeLeu-Nle-Dbu-Pro-Arg-Gly-NH2] (HELM PEPTIDE1{[O=C(O)CCCCCCCCCCCCCCCCCCC(=O)[*:2]].[gGlu].[gGlu].[gGlu].[Sar].[Sar].[Sar].[Sar].[Sar].[Sar].[Sar].[Sar].[Sar].[Sar].[Sar].[Sar].[Sar].[Sar].[Sar].[O=C(CN1CCN(CCN[*:1])CC1)[*:2]].Y.F.[meL].[Nle].[Dab].P.R.G.[am]}$$$$V2.0) | 41
CCCC[C@H](NC(=O)[C@H](CC(C)C)N(C)C(=O)[C@H](Cc1ccccc1)NC(=O)[C@H](Cc1ccc(O)cc1)NC(=O)CN1CCN(CCNC(=O)CN(C)C(=O)CN(C)C(=O)CN(C)C(=O)CN(C)C(=O)CN(C)C(=O)CN(C)C(=O)CN(C)C(=O)CN(C)C(=O)CN(C)C(=O)CN(C)C(=O)CN(C)C(=O)CN(C)C(=O)CN(C)C(=O)CN(C)C(=O)CN(C)C(=O)CC[C@H](NC(=O)CC[C@H](NC(=O)CC[C@H](NC(=O)CCCCCCCCCCCCCCCCCCC(=O)O)C(=O)O)C(=O)O)C(=O)O)CC1)C(=O)N[C@@H](CCN)C(=O)N(C)[C@@H](C)C(=O)N[C@@H](CCCNC(=N)N)C(=O)NCC(N)=O [Compound 43, C20DA-gGlu3-Sar15-AEPipAc-Tyr-Phe-NMeLeu-Nle-Dbu-NMeAla-Arg-Gly-NH2] (HELM PEPTIDE1{[O=C(O)CCCCCCCCCCCCCCCCCCC(=O)[*:2]].[gGlu].[gGlu].[gGlu].[Sar].[Sar].[Sar].[Sar].[Sar].[Sar].[Sar].[Sar].[Sar].[Sar].[Sar].[Sar].[Sar].[Sar].[Sar].[O=C(CN1CCN(CCN[*:1])CC1)[*:2]].Y.F.[meL].[Nle].[Dab].[meA].R.G.[am]}$$$$V2.0) | 28
